PMC9908766, “Characterizing metabolic drivers of Clostridioides difficile infection with activity-based hydrazine probes” (Frontiers in Pharmacology, 2023)

Target: T1, D-proline reductase (PR), PrdA subunit (Clostridioides difficile, UniProt Q17ZY9)
T1 construct: native PR complex purified from C. difficile VPI 10463; processed PrdA (~23 kDa) with N-terminal pyruvoyl; with PrdB
Assay: fluorometric OPA assay of 5-aminovalerate production by purified PR
Format: biochemical

Which IC50 does the source give for `NNCCc1ccccc1` [compound 5, phenelzine] here?
The IC50 was 460 ± 30 µM.
